Measured values: ChEMBL document CHEMBL1201862, “PubChem BioAssay data set” (2004)
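Step 1: Grow cells in 96-well plates. Step 2: Expose to compound for 48 hours at 5 concentrations. Step 3: Interpolate endpoints linearly; if unreached, use highest concentration. At the GI50, growth is halved.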 Active and inactive are the calls of the source. Rule as the data show it: active = GI50 up to about 1.1 µM and inactive = higher.

How the values were obtained:
Test in all cases: NCI anticancer screen, dose series, 48 h
[1] = test system: U-251
[2] = test system: LOX IMVI
[3] = test system: HCT-116
[4] = test system: NCI-H460
[5] = test system: MDA-N
[6] = test system: HL-60
[7] = test system: MOLT-4
[8] = test system: OVCAR-4
[9] = test system: K562
[10] = test system: UACC-257
[11] = test system: SF-268
[12] = test system: HT-29
[13] = test system: TK-10
[14] = test system: SW-620
[15] = test system: SF-539
[16] = test system: COLO 205
[17] = test system: SF-295

Row | Compound | GI50 [1] | GI50 [2] | GI50 [3] | GI50 [4] | GI50 [5] | GI50 [6] | GI50 [7] | GI50 [8] | GI50 [9] | GI50 [10] | GI50 [11] | GI50 [12] | GI50 [13] | GI50 [14] | GI50 [15] | GI50 [16] | GI50 [17]
1 | CN(C)CCCNC(=O)c1cn2c(ccc3sc4ccccc4c(=O)c32)n1 | 1.63 µM (inactive) | 1.41 µM (inactive) | 1.53 µM (inactive) | 1.13 µM (inactive) | 5.09 µM (inactive) | 3.6 µM (inactive) | 0.738 µM (active) | 13.6 µM (inactive) | 1.79 µM (inactive) | 15.1 µM (inactive) | 3.82 µM (inactive) | 1.3 µM (inactive) | 16.5 µM (inactive) | 1.51 µM (inactive) | 16.7 µM (inactive) | 3.77 µM (inactive) | 5.36 µM (inactive)
2 | CCc1cc2c(c3c1CCCC3)CC1(Cc3ccc(C(=O)OC)cc3C1)C2 (configuration not stated) | 86.1 µM (inactive) | > 100 µM (inactive) | 54.3 µM (inactive) | > 100 µM (inactive) | > 100 µM (inactive) | 20.8 µM (inactive) | 35.4 µM (inactive) | > 100 µM (inactive) | 40.3 µM (inactive) | 53.1 µM (inactive) | > 100 µM (inactive) | 73.8 µM (inactive) | > 100 µM (inactive) | > 100 µM (inactive) | > 100 µM (inactive) | > 100 µM (inactive) | > 100 µM (inactive)
3 | NC(=O)N/N=C1/CCC(O)CC1CC(=O)O (configuration not stated) | > 100 µM (inactive) | > 100 µM (inactive) | > 100 µM (inactive) | > 100 µM (inactive) | > 100 µM (inactive) | 2.7 µM (inactive) | > 100 µM (inactive) | > 100 µM (inactive) | > 100 µM (inactive) | > 100 µM (inactive) | > 100 µM (inactive) | > 100 µM (inactive) | > 100 µM (inactive) | > 100 µM (inactive) | > 100 µM (inactive) | > 100 µM (inactive) | > 100 µM (inactive)
4 | Cc1ccc(C2=Nn3c(nc4sc(-c5ccccc5)cc4c3=O)SC2)cc1 | > 100 µM (inactive) | > 100 µM (inactive) | > 100 µM (inactive) | > 100 µM (inactive) | > 100 µM (inactive) | > 100 µM (inactive) | > 100 µM (inactive) | > 100 µM (inactive) | > 100 µM (inactive) | > 100 µM (inactive) | > 100 µM (inactive) | > 100 µM (inactive) | > 100 µM (inactive) | > 100 µM (inactive) | > 100 µM (inactive) | > 100 µM (inactive) | > 100 µM (inactive)
5 | CC(C)NC(=O)OCc1c(COC(=O)NC(C)C)n(C)c2c1ccc1sccc12 | 20.7 µM (inactive) | 7.94 µM (inactive) | 11.1 µM (inactive) | 5.33 µM (inactive) | 17.4 µM (inactive) | > 100 µM (inactive) | 10.3 µM (inactive) | 12.8 µM (inactive) | 23.4 µM (inactive) | 15.8 µM (inactive) | 6.18 µM (inactive) | 24.2 µM (inactive) | 18.6 µM (inactive) | 16.2 µM (inactive) | 12.4 µM (inactive) | 13.6 µM (inactive) | 10 µM (inactive)
6 | C/C(=C/CO[Si](C)(C)C(C)(C)C)C(=O)N(C)c1ccccc1I | 15.3 µM (inactive) | 17.3 µM (inactive) | 13 µM (inactive) | 14.7 µM (inactive) | 17.7 µM (inactive) | 12.2 µM (inactive) | 18.2 µM (inactive) | 15.3 µM (inactive) | 19.8 µM (inactive) | 13.3 µM (inactive) | 17.5 µM (inactive) | 10 µM (inactive) | 18.7 µM (inactive) | 17.6 µM (inactive) | 17.2 µM (inactive) | 18.5 µM (inactive) | 16.5 µM (inactive)
